Laboratory results from ChEMBL document CHEMBL1201862, “PubChem BioAssay data set” (2004).
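Briefly, cells in 96-well plates were exposed to five compound concentrations for 48 h, and endpoints were estimated by linear interpolation. GI50: concentration for 50% inhibition of growth.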 The source made the active and inactive calls. Cut-off read from the data, not from the text of the source: active = GI50 up to about 1.1 µM and inactive = higher.

Key:
Test in all cases: growth of human tumour cells (NCI), 48 h
SK-MEL-2 = tested on: SK-MEL-2
LOX IMVI = tested on: LOX IMVI
SNB-75 = tested on: SNB-75
T47D = tested on: T47D
SK-MEL-5 = tested on: SK-MEL-5
IGROV-1 = tested on: IGROV-1
NCI-H460 = tested on: NCI-H460
HCT-15 = tested on: HCT-15
CAKI-1 = tested on: CAKI-1
NCI-H522 = tested on: NCI-H522
OVCAR-8 = tested on: OVCAR-8
DU-145 = tested on: DU-145
UACC-257 = tested on: UACC-257
Hs-578T = tested on: Hs-578T
K562 = tested on: K562
MOLT-4 = tested on: MOLT-4
RPMI-8226 = tested on: RPMI-8226
SW-620 = tested on: SW-620
786-0 = tested on: 786-0
OVCAR-5 = tested on: OVCAR-5

SMILES | GI50 (SK-MEL-2) | GI50 (LOX IMVI) | GI50 (SNB-75) | GI50 (T47D) | GI50 (SK-MEL-5) | GI50 (IGROV-1) | GI50 (NCI-H460) | GI50 (HCT-15) [µM] | GI50 (CAKI-1) | GI50 (NCI-H522) | GI50 (OVCAR-8) | GI50 (DU-145) | GI50 (UACC-257) | GI50 (Hs-578T) | GI50 (K562) | GI50 (MOLT-4) | GI50 (RPMI-8226) | GI50 (SW-620) | GI50 (786-0) | GI50 (OVCAR-5)
CC1(C)C=C(/C=C2/N(S(=O)(=O)C(F)(F)F)C(/C=C3/N(S(=O)(=O)C(F)(F)F)C(C)(C#N)CC3(C)C)=CC2(C)C)N=C1/C=C1/CC(C)(C)C(=O)N1 (stereo not given) | 29.5 µM (inactive) | 17.9 µM (inactive) | 61.5 µM (inactive) | 6.07 µM (inactive) | 13.8 µM (inactive) | 7.24 µM (inactive) | 20.8 µM (inactive) | 6.05 | 11.4 µM (inactive) | 5.96 µM (inactive) | 4.57 µM (inactive) | 33.9 µM (inactive) | 20.6 µM (inactive) | 16.2 µM (inactive) | 3.11 µM (inactive) | 2.84 µM (inactive) | 3.93 µM (inactive) | 6.93 µM (inactive) | 20.7 µM (inactive) | 57.5 µM (inactive)
NNC(=O)CSc1nc2ccc(I)cc2c(=O)n1Cc1ccccc1 | 20.4 µM (inactive) | 15.6 µM (inactive) | 22.9 µM (inactive) | 22.5 µM (inactive) | 17.2 µM (inactive) | 24.4 µM (inactive) | 18.8 µM (inactive) | 36.6 | 15.3 µM (inactive) | 14.9 µM (inactive) | 48.4 µM (inactive) | 31.2 µM (inactive) | 19.9 µM (inactive) | 20.9 µM (inactive) | 26.1 µM (inactive) | 15 µM (inactive) | 21.6 µM (inactive) | 33 µM (inactive) | 15.6 µM (inactive) | 20.4 µM (inactive)
N#Cc1c(Nc2ccccc2)[n+]([O-])c2ccc(Cl)cc2[n+]1[O-] | 18 µM (inactive) | 3.1 µM (inactive) | 25.9 µM (inactive) | 6.65 µM (inactive) | 2.09 µM (inactive) | 1.78 µM (inactive) | 2.42 µM (inactive) | 1.89 | 5.09 µM (inactive) | 2.16 µM (inactive) | 2.77 µM (inactive) | 16.1 µM (inactive) | 7.28 µM (inactive) | 16.6 µM (inactive) | 3.03 µM (inactive) | 3.65 µM (inactive) | 3.28 µM (inactive) | 4.63 µM (inactive) | 5.25 µM (inactive) | 15.8 µM (inactive)
Nc1cc(Cl)ccc1SSc1ccc(Cl)cc1N | 17 µM (inactive) | 3.49 µM (inactive) | 16.8 µM (inactive) | 5.92 µM (inactive) | 14 µM (inactive) | 10.1 µM (inactive) | 12.5 µM (inactive) | 2.99 | 19.6 µM (inactive) | 7.57 µM (inactive) | 16.6 µM (inactive) | 15.2 µM (inactive) | 17.6 µM (inactive) | 8.79 µM (inactive) | 10.4 µM (inactive) | 4.06 µM (inactive) | 3.72 µM (inactive) | 3.94 µM (inactive) | 13.2 µM (inactive) | 14.8 µM (inactive)
CCO[C@@H]1CCC([S+]([O-])c2ccc(C)cc2)=CO1 (stereo not given in full) | > 100 µM (inactive) | > 100 µM (inactive) | > 100 µM (inactive) | > 100 µM (inactive) | > 100 µM (inactive) | > 100 µM (inactive) | > 100 µM (inactive) | > 100 | > 100 µM (inactive) | > 100 µM (inactive) | > 100 µM (inactive) | > 100 µM (inactive) | > 100 µM (inactive) | > 100 µM (inactive) | > 100 µM (inactive) | 52.1 µM (inactive) | > 100 µM (inactive) | > 100 µM (inactive) | > 100 µM (inactive) | > 100 µM (inactive)
Cc1[nH]c2ccccc2c1-c1cc(-c2cc(-c3c(C)[nH]c4ccccc34)on2)no1 | > 100 µM (inactive) | 55 µM (inactive) | 18.2 µM (inactive) | 85.5 µM (inactive) | 38.5 µM (inactive) | 56.8 µM (inactive) | 42 µM (inactive) | 57.1 | 76.2 µM (inactive) | 34.3 µM (inactive) | > 100 µM (inactive) | > 100 µM (inactive) | 43.1 µM (inactive) | 37.2 µM (inactive) | 56.6 µM (inactive) | > 100 µM (inactive) | 85.1 µM (inactive) | 53.2 µM (inactive) | 92 µM (inactive) | > 100 µM (inactive)
CC1=CC(=O)c2c(O)cccc2C1=O [PLUMBAGIN] | 1.85 µM (inactive) | 1.81 µM (inactive) | 5.51 µM (inactive) | 0.434 µM (active) | 1.62 µM (inactive) | 1.78 µM (inactive) | 3.64 µM (inactive) | 1.7 | 1.83 µM (inactive) | 1.57 µM (inactive) | 1.69 µM (inactive) | 1.65 µM (inactive) | 1.81 µM (inactive) | 2.91 µM (inactive) | 0.391 µM (active) | 0.236 µM (active) | 0.891 µM (active) | 1.91 µM (inactive) | 1.65 µM (inactive) | 1.94 µM (inactive)
Clc1cc2ccccc2c2ccccc12 | 27.5 µM (inactive) | 53.7 µM (inactive) | > 100 µM (inactive) | 32 µM (inactive) | 63.2 µM (inactive) | 64 µM (inactive) | 44.8 µM (inactive) | 25.6 | 42 µM (inactive) | 33.8 µM (inactive) | > 100 µM (inactive) | 43 µM (inactive) | 55.2 µM (inactive) | 65.6 µM (inactive) | 42.1 µM (inactive) | 69.2 µM (inactive) | 31.9 µM (inactive) | 90.6 µM (inactive) | > 100 µM (inactive) | > 100 µM (inactive)
Cc1ccc(NC(=O)c2cc(S(=O)(=O)N3CCNNC3=O)c(S)cc2Cl)cc1 | > 100 µM (inactive) | > 100 µM (inactive) | > 100 µM (inactive) | 41.8 µM (inactive) | > 100 µM (inactive) | > 100 µM (inactive) | > 100 µM (inactive) | > 100 | > 100 µM (inactive) | 26.5 µM (inactive) | > 100 µM (inactive) | > 100 µM (inactive) | > 100 µM (inactive) | > 100 µM (inactive) | 56.5 µM (inactive) | > 100 µM (inactive) | 28.2 µM (inactive) | > 100 µM (inactive) | > 100 µM (inactive) | > 100 µM (inactive)
Cc1nc(O)nc(N/N=C/c2ccc(Cl)c(Cl)c2)c1C(=O)Nc1ccc(Cl)c(Cl)c1 | 17 µM (inactive) | 15.1 µM (inactive) | 12.3 µM (inactive) | 24.7 µM (inactive) | 9.59 µM (inactive) | 13.8 µM (inactive) | 18.4 µM (inactive) | 11.7 | 17.2 µM (inactive) | 17.1 µM (inactive) | 4.27 µM (inactive) | 12.6 µM (inactive) | > 24.6 µM (inactive) | 10.5 µM (inactive) | 11.5 µM (inactive) | 38.5 µM (inactive) | 41.3 µM (inactive) | 12.9 µM (inactive) | 10.3 µM (inactive) | 26.5 µM (inactive)
